Test results reported in a compilation of properties of binary mixtures (doi:10.1021/acs.jpcb.5b11900).

Experiment: xn = mol fraction of the nth substance listed
Settings: 101 kPa

CC[NH+](CC)CC.O=[N+]([O-])[O-] + CC[NH3+].O=[N+]([O-])[O-]
Settings	electrical conductivity [S/m]	viscosity [mPa·s]
293.15 K, x1 = 0.0499	1.67	46.6
293.15 K, x1 = 0.0999	1.45	51.2
293.15 K, x1 = 0.3995	0.71	90.2
293.15 K, x1 = 0.4472	0.62	100
293.15 K, x1 = 0.5003	0.56	108.1
293.15 K, x1 = 0.5485	0.56	105.4
298.15 K, x1 = 0.0499	1.96	39
298.15 K, x1 = 0.0999	1.71	42.5
298.15 K, x1 = 0.1997	1.36	51.1
298.15 K, x1 = 0.25	1.16	56.2
298.15 K, x1 = 0.2993	1.02	62.4
298.15 K, x1 = 0.3475	0.95	66.9
298.15 K, x1 = 0.3995	0.85	71.8
298.15 K, x1 = 0.4472	0.75	79.3
298.15 K, x1 = 0.5003	0.68	85.2
298.15 K, x1 = 0.5485	0.68	83.1
303.15 K, x1 = 0.0499	2.27	32.9
303.15 K, x1 = 0.0999	1.99	35.7
303.15 K, x1 = 0.149	1.77	37.9
303.15 K, x1 = 0.1997	1.59	42.5
303.15 K, x1 = 0.25	1.36	46.5
303.15 K, x1 = 0.2993	1.2	51.4
303.15 K, x1 = 0.3995	1.01	58.5
303.15 K, x1 = 0.4472	0.9	64.3
303.15 K, x1 = 0.5003	0.82	68.8
303.15 K, x1 = 0.5485	0.81	67
308.15 K, x1 = 0.0499	2.6	28.1
308.15 K, x1 = 0.0999	2.29	30.3
308.15 K, x1 = 0.149	2.05	32.1
308.15 K, x1 = 0.1997	1.84	35.7
308.15 K, x1 = 0.25	1.58	39
308.15 K, x1 = 0.2993	1.4	42.8
308.15 K, x1 = 0.3475	1.31	45.4
308.15 K, x1 = 0.3995	1.18	48.3
308.15 K, x1 = 0.4472	1.06	52.8
308.15 K, x1 = 0.5003	0.96	56.3
308.15 K, x1 = 0.5485	0.96	54.7
313.15 K, x1 = 0.0499	2.96	24.1
313.15 K, x1 = 0.0999	2.61	26
313.15 K, x1 = 0.149	2.35	27.7
313.15 K, x1 = 0.1997	2.12	30.7
313.15 K, x1 = 0.25	1.81	33
313.15 K, x1 = 0.2993	1.63	36.1
313.15 K, x1 = 0.3475	1.52	38.5
313.15 K, x1 = 0.5003	1.13	47.1
313.15 K, x1 = 0.5485	1.12	45.8
318.15 K, x1 = 0.0499	3.33	21
318.15 K, x1 = 0.0999	2.95	22.6
318.15 K, x1 = 0.149	2.66	23.7
318.15 K, x1 = 0.1997	2.41	26
318.15 K, x1 = 0.25	2.07	28.2
318.15 K, x1 = 0.2993	1.86	30.6
318.15 K, x1 = 0.3475	1.74	32.3
318.15 K, x1 = 0.3995	1.58	34.1
318.15 K, x1 = 0.4472	1.41	36.9
318.15 K, x1 = 0.5003	1.3	39.1
318.15 K, x1 = 0.5485	1.29	37.9
323.15 K, x1 = 0.0499	3.73	18.4
323.15 K, x1 = 0.149	2.99	20.6
323.15 K, x1 = 0.1997	2.71	22.5
323.15 K, x1 = 0.25	2.34	24.2
323.15 K, x1 = 0.2993	2.11	26.3
323.15 K, x1 = 0.3475	1.97	27.6
323.15 K, x1 = 0.4472	1.61	31.3
323.15 K, x1 = 0.5485	1.48	32.1
328.15 K, x1 = 0.0499	–	16.3
328.15 K, x1 = 0.0999	–	17.3
328.15 K, x1 = 0.1997	–	19.7
328.15 K, x1 = 0.25	–	21
328.15 K, x1 = 0.2993	–	22.8
328.15 K, x1 = 0.3475	–	23.9
328.15 K, x1 = 0.4472	–	26.9
333.15 K, x1 = 0.0499	–	14.4
333.15 K, x1 = 0.0999	–	15.3
333.15 K, x1 = 0.149	–	16.1
333.15 K, x1 = 0.25	–	18.4
333.15 K, x1 = 0.2993	–	19.9
333.15 K, x1 = 0.3475	–	21
333.15 K, x1 = 0.3995	–	22
333.15 K, x1 = 0.4472	–	23.5
338.15 K, x1 = 0.0499	–	12.9
338.15 K, x1 = 0.0999	–	13.7
338.15 K, x1 = 0.149	–	14.2
338.15 K, x1 = 0.1997	–	15.2
338.15 K, x1 = 0.25	–	16.3
338.15 K, x1 = 0.3475	–	18.2
338.15 K, x1 = 0.3995	–	19
338.15 K, x1 = 0.5003	–	21.2
338.15 K, x1 = 0.5485	–	20.5
343.15 K, x1 = 0.0999	–	12.3
343.15 K, x1 = 0.149	–	12.7
343.15 K, x1 = 0.1997	–	13.5
343.15 K, x1 = 0.25	–	14.5
343.15 K, x1 = 0.3475	–	16.1
343.15 K, x1 = 0.3995	–	16.8
343.15 K, x1 = 0.4472	–	17.8
343.15 K, x1 = 0.5003	–	19.3
343.15 K, x1 = 0.5485	–	17.9
348.15 K, x1 = 0.0499	–	10.5
348.15 K, x1 = 0.149	–	11.4
348.15 K, x1 = 0.1997	–	12.1
348.15 K, x1 = 0.25	–	13
348.15 K, x1 = 0.3475	–	14.3
348.15 K, x1 = 0.3995	–	14.9
353.15 K, x1 = 0.0999	–	9.6
353.15 K, x1 = 0.149	–	10.4
353.15 K, x1 = 0.1997	–	11
353.15 K, x1 = 0.25	–	11.7
353.15 K, x1 = 0.3475	–	13
353.15 K, x1 = 0.3995	–	13.5
353.15 K, x1 = 0.4472	–	14.2

CC[NH2+]CC.O=[N+]([O-])[O-] + CC[NH3+].O=[N+]([O-])[O-]
Settings	electrical conductivity [S/m]	viscosity [mPa·s]
293.15 K, x1 = 0.0499	1.8	44.4
293.15 K, x1 = 0.1499	1.69	45.4
293.15 K, x1 = 0.1999	1.55	49.7
293.15 K, x1 = 0.2501	1.59	46
293.15 K, x1 = 0.2998	1.55	45.6
298.15 K, x1 = 0.0499	2.1	37.2
298.15 K, x1 = 0.0998	2.02	36.2
298.15 K, x1 = 0.1499	1.99	37.9
298.15 K, x1 = 0.1999	1.83	41.3
298.15 K, x1 = 0.2998	1.87	37.9
298.15 K, x1 = 0.3501	1.72	41.2
303.15 K, x1 = 0.0499	2.43	31.5
303.15 K, x1 = 0.0998	2.34	30.6
303.15 K, x1 = 0.1499	2.31	31.9
303.15 K, x1 = 0.1999	2.12	34.7
303.15 K, x1 = 0.2501	2.18	32.2
303.15 K, x1 = 0.2998	2.18	31.9
303.15 K, x1 = 0.3501	2	34.5
308.15 K, x1 = 0.0998	2.69	26.2
308.15 K, x1 = 0.1499	2.64	27.3
308.15 K, x1 = 0.1999	2.44	29.4
308.15 K, x1 = 0.2501	2.5	27.4
308.15 K, x1 = 0.2998	2.5	27.2
308.15 K, x1 = 0.3501	2.3	29.2
313.15 K, x1 = 0.0499	3.16	23.2
313.15 K, x1 = 0.0998	3.06	22.4
313.15 K, x1 = 0.1499	3.01	23.4
313.15 K, x1 = 0.2501	2.84	23.4
313.15 K, x1 = 0.2998	2.84	23.3
318.15 K, x1 = 0.0499	3.55	20.2
318.15 K, x1 = 0.1999	3.15	21.8
318.15 K, x1 = 0.2501	3.2	20.4
318.15 K, x1 = 0.3501	2.97	21.6
323.15 K, x1 = 0.0499	3.97	17.8
323.15 K, x1 = 0.0998	3.85	17.3
323.15 K, x1 = 0.2501	3.59	17.8
323.15 K, x1 = 0.2998	3.59	17.8
323.15 K, x1 = 0.3501	3.34	18.8
328.15 K, x1 = 0.0499	–	15.7
328.15 K, x1 = 0.1499	–	15.8
328.15 K, x1 = 0.1999	–	16.7
328.15 K, x1 = 0.2501	–	15.7
328.15 K, x1 = 0.3501	–	16.5
333.15 K, x1 = 0.0499	–	13.9
333.15 K, x1 = 0.0998	–	13.6
333.15 K, x1 = 0.1499	–	14
333.15 K, x1 = 0.1999	–	14.7
333.15 K, x1 = 0.2501	–	13.9
333.15 K, x1 = 0.2998	–	13.9
333.15 K, x1 = 0.3501	–	14.6
338.15 K, x1 = 0.0499	–	12.5
338.15 K, x1 = 0.0998	–	12.1
338.15 K, x1 = 0.1499	–	12.5
338.15 K, x1 = 0.1999	–	13.1
338.15 K, x1 = 0.2501	–	12.5
338.15 K, x1 = 0.3501	–	13
343.15 K, x1 = 0.0998	–	10.8
343.15 K, x1 = 0.1999	–	11.9
343.15 K, x1 = 0.2501	–	11.2
343.15 K, x1 = 0.2998	–	10.9
343.15 K, x1 = 0.3501	–	11.7
348.15 K, x1 = 0.0998	–	9.8
348.15 K, x1 = 0.1499	–	10.1
348.15 K, x1 = 0.1999	–	10.7
348.15 K, x1 = 0.2501	–	10.1
348.15 K, x1 = 0.2998	–	9.6
348.15 K, x1 = 0.3501	–	10.5
353.15 K, x1 = 0.0499	–	9.2
353.15 K, x1 = 0.2501	–	9.14
353.15 K, x1 = 0.2998	–	8.69

CC[NH3+].O=[N+]([O-])[O-] + CC[NH+](CC)CC.O=[N+]([O-])[O-]
x2 = 0
Settings	electrical conductivity [S/m]	viscosity [mPa·s]
303.15 K	2.6	31
308.15 K	2.97	26.5
318.15 K	3.78	20
328.15 K	–	15.6
333.15 K	–	13.8
338.15 K	–	12.5
343.15 K	–	11.2
348.15 K	–	10.2
353.15 K	–	9.2
